The values that follow are results of earlier work, collected in patent US12616707B2, “Compositions and methods for improving gut health” (Plexus Worldwide, LLC., priority 2017, dated 2026).

Structures are written as SMILES.

Data set [1] deals with DSS-induced colitis model. The settings on record: chlorogenic acid supplementation.
Setting [2] is: 0.02% (wt/wt) in high-fat diet vs high-fat control group.

As to `O=C(/C=C/c1ccc(O)c(O)c1)O[C@@H]1C[C@](O)(C(=O)O)C[C@@H](O)[C@H]1O` [chlorogenic acid], the IL-1β expression result in data set [1] is “significant suppression”. In the data set with high-fat fed mice (setting [2]), the Body weight result is on record as “significantly lowered”, the Plasma insulin levels entry was “significantly lowered”, the Plasma leptin levels result is “significantly lowered” and the Visceral fat mass entry is on record as “significantly lowered”. In the data set with high-fat fed mice (high-fat diet), the “Cholesterol concentrations (plasma, adipose tissue and heart)” value is given as “lowered”; the “Triglyceride concentrations (plasma, liver and heart)” value is “lowered”.
